Consider three molecules from patent US7994164B2, “Mineralocorticoid receptor antagonists and methods of use” (Eli Lilly and Company, priority 2007, dated 2011).

Molecules are shown by their SMILES.

In experiment [1] the test system is uni-nephrectomized Sprague Dawley rats. Nature of the experiment: In vivo model of aldosterone mediated renal disease. As to conditions: 10 mg/kg/day x 14 days, oral gavage, aldosterone-infused rats; average of n=8. As to the method:
Male uni-nephrectomized Sprague Dawley rats (240-280 g) are housed individually with ad lib house water and rodent 5001 diet for one week. After acclimation, baseline 24 h urine samples are collected and analyzed for total urine protein and creatinine. Animals are randomized via body weight and baseline urine protein into study groups. Baseline serum is taken by tail-clip and analyzed for blood urea nitrogen (BUN), creatinine, and electrolytes. After baseline samples are taken, all rats with the exception of the control group are maintained on a diet containing 6% salt, and drinking water containing 0.3% KCl throughout the study duration. […] Alza mini-pumps to deliver 2.5 μl/h×28 days of d-aldosterone in 0.01% DMSO at 0.75 μg/h, s.c. are implanted in non-control animals (e.g Test Compound group and Vehicle only group) under isoflourane anesthesia. […] Repeat urine samples are collected after 2 and 4 weeks of compound or vehicle alone administration and analyzed for total urine protein and creatinine. At study termination, pharmacokinetic samples are obtained at 8 timepoints (0.5, 1, 2, 3, 6, 8, 12 and 24 h). In addition, hearts and kidneys are removed and fixed in 10% buffered formalin for haematoxylin and eosin (H&E) and Masson's trichrome staining to detect structural damage in cardiac and renal tissues. Serum is taken by cardiac puncture at study termination for additional analysis of serum BUN, creatinine, and electrolytes.

Experiment [2] has as its target T1, human MR (mineralocorticoid receptor) (Homo sapiens, UniProt P08235).
T1 construct: expressed in transfected cells; host or cells: HEK293 (lysate, '293-MR lysate')
T1 sequence (P08235 1-984): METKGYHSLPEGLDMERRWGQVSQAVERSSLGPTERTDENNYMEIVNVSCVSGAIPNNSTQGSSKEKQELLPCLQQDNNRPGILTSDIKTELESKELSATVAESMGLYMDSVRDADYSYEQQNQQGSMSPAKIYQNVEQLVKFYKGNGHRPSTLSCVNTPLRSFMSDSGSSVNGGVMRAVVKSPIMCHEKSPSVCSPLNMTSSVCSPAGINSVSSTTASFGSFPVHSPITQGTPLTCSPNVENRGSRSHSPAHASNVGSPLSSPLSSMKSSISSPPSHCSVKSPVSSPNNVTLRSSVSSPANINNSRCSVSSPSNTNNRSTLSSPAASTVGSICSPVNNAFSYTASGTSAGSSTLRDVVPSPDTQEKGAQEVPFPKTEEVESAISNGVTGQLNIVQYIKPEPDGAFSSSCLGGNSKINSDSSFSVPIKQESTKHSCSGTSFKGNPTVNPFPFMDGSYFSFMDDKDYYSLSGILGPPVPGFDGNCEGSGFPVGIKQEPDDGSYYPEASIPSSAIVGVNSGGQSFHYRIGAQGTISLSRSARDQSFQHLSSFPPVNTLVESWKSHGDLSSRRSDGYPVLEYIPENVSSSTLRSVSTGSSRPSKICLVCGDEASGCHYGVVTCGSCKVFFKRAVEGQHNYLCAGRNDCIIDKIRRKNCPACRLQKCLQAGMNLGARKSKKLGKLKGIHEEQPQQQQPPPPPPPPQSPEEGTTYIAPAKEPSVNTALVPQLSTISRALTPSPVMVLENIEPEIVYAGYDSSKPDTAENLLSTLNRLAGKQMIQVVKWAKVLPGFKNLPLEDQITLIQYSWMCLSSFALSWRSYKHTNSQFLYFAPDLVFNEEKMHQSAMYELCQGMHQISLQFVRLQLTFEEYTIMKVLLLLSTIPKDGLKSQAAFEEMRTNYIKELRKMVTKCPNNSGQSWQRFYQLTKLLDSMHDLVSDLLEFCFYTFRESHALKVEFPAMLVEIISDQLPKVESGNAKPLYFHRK
Briefly: Steroid hormone nuclear receptor binding assay (MR binding). Particulars: HEK293 lysate overexpressing human MR, [3H]-aldosterone; individual values geometric mean of n=2. As to the method:
Cell lysates from human embryonic kidney HEK293 cells overexpressing human MR (mineralocorticoid receptor), GR (glucocorticoid receptor), AR (androgen receptor), or PR (progesterone receptor) are used for receptor-ligand competition binding assays to determine Ki values.
Briefly, steroid receptor competition binding assays are run in a buffer containing 20 mM HEPES buffer (pH=7.6), 0.2 mM EDTA, 75 mM NaCl, 1.5 mM MgCl2, 20% glycerol, 20 mM sodium molybdate, 0.2 mM DTT (dithiothreitol), 20 μg/mL aprotinin and 20 μg/mL leupeptin (assay buffer). Typically, steroid receptor binding assays include radio-labeled ligands, such as 0.25 nM [^3H]-aldosterone for MR binding, 0.3 nM [^3H]-dexamethasone for GR binding, 0.36 nM [^3H]-methyltrienolone for AR binding, and 0.29 nM [^3H]-methyltrienolone for PR binding, and either 20 μg 293-MR lysate, 20 μg 293-GR lysate, 22 μg 293-AR lysate, or 40 μg 293-PR lysate per well. Assays are typically run in 96-well format. Competing test compounds are added at various concentrations ranging from about 0.01 nM to 10 μM. […] The binding reactions (140 μL) are incubated overnight at 4° C., then 70 μL of cold charcoal-dextran buffer (containing per 50 mL of assay buffer, 0.75 g of charcoal and 0.25 g of dextran) is added to each reaction. Plates are mixed for 8 minutes on an orbital shaker at 4° C. The plates are then centrifuged at 3,000 rpm at 4° C. for 10 minutes. An aliquot of 120 μL of the binding reaction mixture is then transferred to another 96-well plate and 175 μL of Wallac Optiphase Hisafe 3™ scintillation fluid is added to each well. Plates are sealed and shaken vigorously on an orbital shaker. After an incubation of 2 hours, plates are read in a Wallac Microbeta counter.
The Kd for [^3H]-aldosterone for MR binding, [^3H]-dexamethasone for GR binding, [^3H]-methyltrienolone for AR binding, or [^3H]-methyltrienolone for PR binding, is determined by saturation binding. The IC50 values for compounds are converted to Ki using the Cheng-Prusoff equation.

For experiment [3], the target named is T2, human MR (Homo sapiens, UniProt P08235).
T2 construct: expressed in transfected cells; host or cells: HEK293, transient transfection with a CMV-driven plasmid and a GRE-TK-luciferase reporter
T2 sequence (P08235 1-984): T1 sequence (P08235 1-984)
Briefly: hMR competitive antagonist assay (luciferase reporter, Schild analysis). The format is cell-based. An excerpt:
Human embryonic kidney HEK293 cells are transfected with steroid hormone receptor and reporter gene plasmids using a suitable transfection reagent such as Fugene™. Briefly, the reporter plasmid containing two copies of probasin ARE and TK (thymidine kinase) promoter upstream of the luciferase reporter cDNA, is transfected into HEK293 cells with a plasmid constitutively expressing human androgen receptor (AR) using viral CMV (cytomegalovirus) promoter. The reporter plasmid containing two copies of GRE and TK promoter upstream of the luciferase reporter cDNA is transfected with a plasmid constitutively expressing either human glucocorticoid receptor (GR), human mineralocorticoid receptor (MR), or human progesterone receptor (PR) using viral CMV promoter. Cells are transfected in T150 cm flasks in DMEM media with 5% charcoal-stripped Fetal Bovine Serum (FBS). After an overnight incubation, transfected cells are trypsinized, plated in 96 well dishes in DMEM media containing 5% charcoal-stripped FBS, incubated for 4 hours and then exposed to various concentrations of test compounds ranging from about 0.01 nM to 10 μM. […] After 24 hours incubation with test compounds, cells are lysed and luciferase activity is determined using standard techniques.
Human embryonic kidney HEK293 cells are transfected with human MR using the same transfection reagents, plasmids, promoters, reporter constructs, buffers, and procedures as described above for the Nuclear Hormone Receptor Panel Screen.

Turning to `N#C/N=c1\[nH]c2cc(/C=C3/c4ccc(F)cc4OCc4c(F)cccc43)ccc2n1[C@H]1C[C@@H]2COCCN2C1` [Example 23, (E)-N-(5-((E)-3,7-Difluoro-6H-dibenzo[b,e]oxepin-11-ylidenemethyl)-1-((7S, 8aR)-hexahydro-pyrrolo[2,1-c][1,4]oxazin-7-yl)-1,3-dihydro-benzoimidazol-2-ylidene)-cyanamide], in experiment [1], the “reduced urinary protein excretion compared to vehicle treated animals” value (“reduced urinary protein excretion” for short) is listed as about 64 mg/day. Further, the Ki (usually a measure of affinity in units of concentration, obtained from inhibition or displacement) in experiment [2] was about 0.23 nM. For the same molecule, the Kb (usually the equilibrium dissociation constant of an antagonist, usually derived from a functional assay) in experiment [3] is about 2.5 nM.

`CN1CCN(n2/c(=N/C#N)[nH]c3cc(/C=C4\c5ccccc5COc5cc(F)ccc54)ccc32)CC1` [Example 8, (E)-N-(5-((E)-3-Fluoro-6H-dibenzo[b,e]oxepin-11-ylidenemethyl)-1-(4-methyl-piperazin-1-yl)-1,3-dihydro-benzoimidazol-2-ylidene)-cyanamide]: the “reduced urinary protein excretion” value in experiment [1] was about 83 mg/day. The Ki in experiment [2] was about 0.08 nM. The molecule also returned an antagonist dissociation constant (Kb) in experiment [3] of about 1.1 nM.

For `C[C@H](CN1CCOCC1)n1/c(=N/C#N)[nH]c2cc(/C=C3\c4ccc(F)cc4COc4cc(F)ccc43)ccc21` [Example 1, (E)-N—((R)-5-((E)-3,8-Difluoro-6H-dibenzo[b,e]oxepin-11-ylidenemethyl)-1-(1-methyl-2-morpholin-4-yl-ethyl)-1,3-dihydro-benzoimidazol-2-ylidene)-cyanamide], the “reduced urinary protein excretion” value in experiment [1] is “about 49 mg/day”. For the same molecule, in experiment [2], the Ki was about 0.79 nM. The Kb in experiment [3] was about 1.2 nM.
